Data: PubChem BioAssay AID179 (DTP/NCI, 2004)
Activity calls are given as the source filed them.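 Rule for the calls: active = compounds giving half or more protection of infected cells from virus-caused growth loss, again on retest; inactive = the rest.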

System: CEM cells HIV-1 protection, formazan growth assay
Experiment: NCI AIDS Antiviral Assay
Conditions: for IC50: measured here: growth of uninfected CEM cells
How it was run: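 CEM (human) cells, HIV-1 infected vs uninfected, 5-point dosing, formazan growth read-out. Retest threshold 50% protection.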

## Nc1ccc(S(=O)(=O)Nc2nc3ccccc3nc2N2CCCCCC2)cc1
  EC50: > 200 µM
  IC50: 33.1 µM

## CCOC(=O)C(=O)CC1=CC=CC2=NC(=O)CCN12
  EC50: > 200 µM
  IC50: > 200 µM

## [Ni+2].[O-]/C(=N\N=C/c1cccc(F)c1)c1ccncc1.[O-]/C(=N\N=C\c1cccc(F)c1)c1ccncc1
  EC50: > 100 µM
  IC50: 38 µM

## Cn1c2ccccc2c2nc3ccccc3nc21
  EC50: > 22.4 µM
  IC50: > 22.4 µM

## CC(C)COC(=O)Sc1ccccc1C(=O)NC(C)C(N)=O (stereo not given)
  EC50: 1.1 µM
  IC50: 115 µM

## Cc1ccc(N(C=O)c2c([N+](=O)[O-])cc([N+](=O)[O-])c3c2=[N+]([O-])CN=3)cc1
  EC50: > 7.59 µM
  IC50: > 7.59 µM

## Oc1c(CN2CCCC2)ccc2ccccc12
  EC50: > 200 µM
  IC50: > 200 µM

## CC1(C)OC(=O)C(C#N)=C1/C=C1\OC(=O)c2ccccc21
  EC50: > 178 µM
  IC50: 52.5 µM

## CSc1nc(N)nc(N)n1
  EC50: > 200 µM
  IC50: > 200 µM

## C/C=C(/C1CC2c3[nH]c4ccccc4c3CCN2C(=O)C1C(=O)OCC)[Si](C)(C)C (stereo not given)
  EC50: > 8.91 µM
  IC50: > 8.91 µM

## N#C/C(=C\c1cc(O)c(O)c(O)c1)C(=O)NCCCCCNC(=O)/C(C#N)=C/c1cc(O)c(O)c(O)c1
  EC50: > 200 µM
  IC50: 38 µM

## O=C(O)C(O[N+](=O)[O-])c1ccccc1 (stereo not given)
  outcome: inactive

## COc1ccc(/C=C2\CCOC2=O)cc1OC
  EC50: > 776 µM
  IC50: 282 µM

## COc1ccc(NC(=O)COC(=O)c2cccc3c(=O)c4ccccc4[nH]c23)cc1
  outcome: inactive

## Cc1nc(C(N)=S)sc1C(=O)/C=C/c1cccc(O)c1
  EC50: > 85.1 µM
  IC50: > 85.1 µM

## CC1(c2nc3ccccc3[nH]2)CCC(C(N)=O)C(C)(C)O1 (stereo not given)
  EC50: > 200 µM
  IC50: > 200 µM

## COc1c(C(C)C)cc(O)c2c1CCC1C(C)=C(C(=O)O)CCC21C (stereo not given)
  EC50: > 200 µM
  IC50: 110 µM

## O=[N+]([O-])/C(C(Cl)=C(Cl)Cl)=C(/Cl)Sc1ccccc1
  EC50: > 200 µM
  IC50: 1.23 µM

## C(=NCCSSCCN=Cc1ccccc1)c1ccccc1
  EC50: > 200 µM
  IC50: 38.9 µM

## O=C(Nc1ccc2c(O)cc(S(=O)(=O)O)cc2c1)Nc1ccc2c(O)c(N=Nc3ccc4cc(S(=O)(=O)O)ccc4c3)c(S(=O)(=O)O)cc2c1
  outcome: active

## c1ccc2c(c1)SCCCSCCCS2
  EC50: > 28.2 µM
  IC50: > 28.2 µM

## COc1cc(C2c3[nH]c4ccc(F)cc4c3C[C@H]3COC(=O)N23)cc(OC)c1O (stereo not given in full)
  EC50: > 200 µM
  IC50: 0.575 µM

## CCC1C(C#N)=C(O)NC(O)=C1C#N
  EC50: > 1290 µM
  IC50: 813 µM

## COC(=O)C1CC23C=CCN4CC(C2C)C2(c5ccccc5NC12)C43 (stereo not given)
  EC50: > 200 µM
  IC50: 112 µM

## COC(=O)c1cc(C(=CCC[C@H]2CC[C@@]3(C)C(CCC4C3CC[C@@]3(C)C4CC[C@@H]3C(C)CCCC(C)C)C2)c2cc(Cl)c(O)c(C(=O)OC)c2)cc(Cl)c1O (stereo not given in full)
  EC50: > 200 µM
  IC50: > 200 µM

## Cc1cccc(C(O)c2ccncc2)c1O (stereo not given)
  EC50: > 200 µM
  IC50: 191 µM

## O=C1NC(O)c2ccccc2O1 (stereo not given)
  EC50: 85.1 µM
  IC50: > 200 µM

## CC(C)OC(=O)OCSc1ccccc1N=Cc1cccc([N+](=O)[O-])c1
  EC50: > 200 µM
  IC50: 38 µM

## O=C(C1OC1c1ccc(Cl)cc1)C12CC3CC(CC(C3)C1)C2 (stereo not given)
  EC50: > 200 µM
  IC50: 18.2 µM

## c1c[nH]c(-c2ccc(-c3ccc[nH]3)c3nsnc23)c1
  EC50: > 200 µM
  IC50: > 200 µM

## CCCCCCSCC(NC(=O)CCC(N)C(=O)O)C(=O)NCC(=O)O (stereo not given)
  EC50: > 24 µM
  IC50: > 24 µM

## O=C(/C=C/c1ccc([N+](=O)[O-])cc1)c1ccccc1
  EC50: > 4.07 µM
  IC50: > 4.07 µM

## Cc1cc2c(=O)c3ccc(Cl)cc3[nH]c2c(C(=O)O)c1C
  outcome: inactive

## CC(=O)c1ccc(Cc2ccc(C(C)=O)s2)s1
  EC50: > 200 µM
  IC50: > 200 µM

## N#C/C(=C\c1ccc(F)cc1)C(=O)O
  EC50: > 263 µM
  IC50: > 263 µM

## CC(=O)N1C(=O)C(C)(C2=CC(=O)c3ccccc3C2=O)c2ccc(Br)cc21 (stereo not given)
  EC50: > 200 µM
  IC50: 2.29 µM

## O=c1c2cc([N+](=O)[O-])cnc2sn1-c1ccc([N+](=O)[O-])cc1
  EC50: > 200 µM
  IC50: 63.1 µM

## CN1C(CC(O)(c2ccccc2)c2ccccc2)CCCC1CC(O)(c1ccccc1)c1ccccc1 (stereo not given)
  EC50: > 200 µM
  IC50: 57.5 µM

## CCO/C=C1\N=C(c2ccc(Cl)c(Cl)c2)OC1=O
  EC50: > 126 µM
  IC50: > 126 µM

## CC(C)(C)[Si](C)(C)OCC1OC(n2ccc(=O)[nH]c2=O)C(O[Si](C)(C)C(C)(C)C)[C@]12N[C@H](C(=O)O)CS2 (stereo not given in full)
  EC50: > 200 µM
  IC50: 10.7 µM

## O=C1c2ccccc2C(=O)N1/N=C1/SC(=Nc2ccccc2)C(=Nc2ccccc2)N1c1ccccc1
  outcome: inactive

## O=C(CCn1[nH]c(=O)c(Cl)c(Cl)c1=O)NNC(=O)C[n+]1ccccc1
  EC50: > 589 µM
  IC50: > 589 µM

## CCCCCCCCCCCCCCCCCC1=Nc2cc(C)c(C)cc2NC(=O)C1
  EC50: > 100 µM
  IC50: > 100 µM

## CCC1=NS(=O)(=O)c2c(ncn2C)N1
  EC50: > 1150 µM
  IC50: > 1150 µM

## Nc1ccc2c(SCC(=O)Nc3ccccc3-c3ccccc3NC(=O)CSc3c4ccccc4nc4cc(N)ccc34)c3ccccc3nc2c1
  EC50: > 7.24 µM
  IC50: > 7.24 µM

## Cc1ccc(C=C(C(=O)O)C(=O)O)cc1
  EC50: > 1200 µM
  IC50: > 1200 µM

## C(CCCCc1nnc(N2CCOCC2)o1)CCCc1nnc(N2CCOCC2)o1
  EC50: > 200 µM
  IC50: 107 µM

## CC1CC2C3CC(F)C4=CC(=O)C=CC4(C)C3(F)C(O)CC2(C)C1(O)C(=O)CO (stereo not given)
  outcome: inactive

## N#CC[C@@H](O)COc1ccccc1
  EC50: > 200 µM
  IC50: > 200 µM

## O=C(C/C(=N/O)C(=O)NC1=C(Cl)C(=O)c2ccccc2C1=O)CC(c1ccccc1)c1c(O)c2ccccc2oc1=O (stereo not given)
  EC50: > 12.3 µM
  IC50: 6.61 µM

## CC(=O)OCC1OC(n2cc(I)c(=O)[nH]c2=O)C(OC(C)=O)C(OC(C)=O)C1OC(C)=O (stereo not given)
  EC50: > 437 µM
  IC50: 282 µM

## CCCCN(CCCC)C(=O)C(=O)C(C#N)c1ccc(C)cc1 (stereo not given)
  outcome: inactive

## CCOC(=O)c1cc2c(nc1N)C(=O)CCC2
  EC50: > 200 µM
  IC50: 112 µM

## COc1cc(C)cc(C(=O)OCc2ccccc2)c1C1=C(Cl)C(=O)C(Cl)=CC1=O
  EC50: > 52.5 µM
  IC50: 8.51 µM

## [N-]=[N+]=NC1CC(n2cc(CO)c(=O)[nH]c2=O)OC1CO (stereo not given)
  EC50: > 437 µM
  IC50: 240 µM

## CC(=O)OC1COC(OC2CC3(C)C4CC=C5C(C=C(O)CC5(C)C)[C@]4(C)CC[C@]3(C)C2C(C)(O)C(=O)/C=C/C(C)(C)O)C(OC(C)=O)C1O (stereo not given in full)
  outcome: inactive

## Cc1sc2ncnc(N)c2c1C
  EC50: > 275 µM
  IC50: > 275 µM

## Cc1ccc2c(N(CCO)CCO)cc(-c3ccccc3)nc2n1
  EC50: > 200 µM
  IC50: > 200 µM

## CC(=O)N1c2ccccc2Sc2c1ccc1ccccc21
  EC50: > 200 µM
  IC50: 45.7 µM

## CCOc1ccc(NC(=O)C(=O)Nn2c(N)nnc2N)cc1
  EC50: > 61.7 µM
  IC50: > 61.7 µM

## Cc1cnc(NCCCN(C)C)c2c1[nH]c1ccc3ccccc3c12
  EC50: > 2 µM
  IC50: 0.316 µM

## C=C1CN(S(=O)(=O)c2ccc(C)cc2)CCCN(CC(C)CC)CCCN(S(=O)(=O)c2ccc(C)cc2)C1 (stereo not given)
  EC50: > 58.9 µM
  IC50: 2.57 µM

## CCOC(=O)c1c(C)nc2c3ccccc3c(C#N)c(C)n12
  EC50: > 100 µM
  IC50: > 100 µM

## OC1(c2ccccc2)CC2CCC(C1)N2CCc1ccccc1 (stereo not given)
  EC50: > 200 µM
  IC50: 102 µM
